Measurements as given in the NIST ThermoML archive (doi:10.1021/je300873x).

Assay: mn = molality of the nth substance listed, in mol/kg
Conditions: for surface tension liquid-gas: Pendant drop shape; for electrical conductivity: Liquid, Digital conductivity meter

CCCCCCCCCCCCCCCC[N+](C)(C)CCO.[Br-] [N-cetyl-hydroxyethyl-dimethyl ammonium bromide] + O
Conditions	electrical conductivity [S/m]	surface tension liquid-gas [mN/m]
298.15 K, m1 = 0.00016	–	61.83
298.15 K, m1 = 0.00033	–	53.61
298.15 K, m1 = 0.00049	–	45.49
298.15 K, m1 = 0.00059	–	41.63
298.15 K, m1 = 0.00069	–	39.31
298.15 K, m1 = 0.00074	–	38.39
298.15 K, m1 = 0.00075	0.0068	–
298.15 K, m1 = 0.00078	0.007	37.61
298.15 K, m1 = 0.00081	0.0072	–
298.15 K, m1 = 0.00083	–	37.58
298.15 K, m1 = 0.00084	0.0074	–
298.15 K, m1 = 0.00088	0.0076	37.3
298.15 K, m1 = 0.00092	0.0078	–
298.15 K, m1 = 0.00096	0.0079	–
298.15 K, m1 = 0.00098	–	37.24
298.15 K, m1 = 0.00101	0.008	–
298.15 K, m1 = 0.00106	0.0082	–
298.15 K, m1 = 0.00108	–	37.15
298.15 K, m1 = 0.00112	0.0084	–
298.15 K, m1 = 0.00118	–	37.12
298.15 K, m1 = 0.00119	0.0085	–
298.15 K, m1 = 0.00126	0.0087	–
298.15 K, m1 = 0.00135	0.0089	–
298.15 K, m1 = 0.00144	0.0091	–
298.15 K, m1 = 0.00156	0.0094	–
298.15 K, m1 = 0.00169	0.0097	–
298.15 K, m1 = 0.00184	0.0101	–
298.15 K, m1 = 0.00202	0.0105	–
303.15 K, m1 = 0.00075	0.0076	–
303.15 K, m1 = 0.00078	0.0078	–
303.15 K, m1 = 0.00081	0.0081	–
303.15 K, m1 = 0.00084	0.0083	–
303.15 K, m1 = 0.00088	0.0085	–
303.15 K, m1 = 0.00092	0.0088	–
303.15 K, m1 = 0.00096	0.009	–
303.15 K, m1 = 0.00101	0.0091	–
303.15 K, m1 = 0.00106	0.0093	–
303.15 K, m1 = 0.00112	0.0095	–
303.15 K, m1 = 0.00119	0.0097	–
303.15 K, m1 = 0.00126	0.0099	–
303.15 K, m1 = 0.00135	0.0101	–
303.15 K, m1 = 0.00144	0.0104	–
303.15 K, m1 = 0.00155	0.0107	–
303.15 K, m1 = 0.00168	0.0111	–
303.15 K, m1 = 0.00184	0.0114	–
303.15 K, m1 = 0.00202	0.0119	–
308.15 K, m1 = 0.00075	0.0083	–
308.15 K, m1 = 0.00078	0.0086	–
308.15 K, m1 = 0.00081	0.0089	–
308.15 K, m1 = 0.00084	0.0092	–
308.15 K, m1 = 0.00088	0.0095	–
308.15 K, m1 = 0.00092	0.0097	–
308.15 K, m1 = 0.00096	0.01	–
308.15 K, m1 = 0.00101	0.0102	–
308.15 K, m1 = 0.00106	0.0105	–
308.15 K, m1 = 0.00112	0.0107	–
308.15 K, m1 = 0.00119	0.0108	–
308.15 K, m1 = 0.00126	0.0111	–
308.15 K, m1 = 0.00134	0.0113	–
308.15 K, m1 = 0.00144	0.0117	–
308.15 K, m1 = 0.00155	0.012	–
308.15 K, m1 = 0.00168	0.0125	–
308.15 K, m1 = 0.00183	0.0129	–
308.15 K, m1 = 0.00202	0.0134	–
313.15 K, m1 = 0.00077	0.0094	–
313.15 K, m1 = 0.0008	0.0098	–
313.15 K, m1 = 0.00084	0.0101	–
313.15 K, m1 = 0.00087	0.0105	–
313.15 K, m1 = 0.00091	0.0108	–
313.15 K, m1 = 0.00096	0.0111	–
313.15 K, m1 = 0.00101	0.0114	–
313.15 K, m1 = 0.00106	0.0118	–
313.15 K, m1 = 0.00112	0.012	–
313.15 K, m1 = 0.00118	0.0123	–
313.15 K, m1 = 0.00126	0.0126	–
313.15 K, m1 = 0.00134	0.0129	–
313.15 K, m1 = 0.00144	0.0133	–
313.15 K, m1 = 0.00155	0.0137	–
313.15 K, m1 = 0.00168	0.0141	–
313.15 K, m1 = 0.00183	0.0147	–
313.15 K, m1 = 0.00201	0.0154	–
318.15 K, m1 = 0.00074	0.0101	–
318.15 K, m1 = 0.00077	0.0104	–
318.15 K, m1 = 0.0008	0.0109	–
318.15 K, m1 = 0.00084	0.0112	–
318.15 K, m1 = 0.00087	0.0116	–
318.15 K, m1 = 0.00091	0.0119	–
318.15 K, m1 = 0.00096	0.0124	–
318.15 K, m1 = 0.001	0.0128	–
318.15 K, m1 = 0.00106	0.0132	–
318.15 K, m1 = 0.00112	0.0137	–
318.15 K, m1 = 0.00118	0.014	–
318.15 K, m1 = 0.00126	0.0144	–
318.15 K, m1 = 0.00134	0.0148	–
318.15 K, m1 = 0.00143	0.0152	–
318.15 K, m1 = 0.00154	0.0158	–
318.15 K, m1 = 0.00167	0.0164	–
318.15 K, m1 = 0.00183	0.0169	–
318.15 K, m1 = 0.00201	0.0174	–
323.15 K, m1 = 0.00074	0.0107	–
323.15 K, m1 = 0.00077	0.0111	–
323.15 K, m1 = 0.0008	0.0116	–
323.15 K, m1 = 0.00083	0.012	–
323.15 K, m1 = 0.00087	0.0124	–
323.15 K, m1 = 0.00091	0.0129	–
323.15 K, m1 = 0.00095	0.0134	–
323.15 K, m1 = 0.001	0.014	–
323.15 K, m1 = 0.00105	0.0143	–
323.15 K, m1 = 0.00111	0.0151	–
323.15 K, m1 = 0.00118	0.0157	–
323.15 K, m1 = 0.00125	0.016	–
323.15 K, m1 = 0.00134	0.0166	–
323.15 K, m1 = 0.00143	0.0171	–
323.15 K, m1 = 0.00154	0.0176	–
323.15 K, m1 = 0.00167	0.0182	–
323.15 K, m1 = 0.00182	0.0189	–
323.15 K, m1 = 0.002	0.0196	–
